Experimental data from PMC4417724 (Nature, 2014).

How the values were obtained:
[1] = target: FLAG-RTCB (human tRNA ligase complex) with recombinant Archease (Homo sapiens, UniProt Q9Y3I0); test: radiolabelled guanylation, SDS-PAGE autoradiography; format: biochemical; settings: covalent RTCB-guanylate intermediate; labelled compound; Archease 10 μM, ATP, Mg(OAc)2, pH 7.5, 37 °C
[2] = target: recombinant hexahistidine tagged human Archease (human); test: SPR

FLAG-RTCB (human tRNA ligase complex) with recombinant Archease, sequence (Q9Y3I0 whole entry): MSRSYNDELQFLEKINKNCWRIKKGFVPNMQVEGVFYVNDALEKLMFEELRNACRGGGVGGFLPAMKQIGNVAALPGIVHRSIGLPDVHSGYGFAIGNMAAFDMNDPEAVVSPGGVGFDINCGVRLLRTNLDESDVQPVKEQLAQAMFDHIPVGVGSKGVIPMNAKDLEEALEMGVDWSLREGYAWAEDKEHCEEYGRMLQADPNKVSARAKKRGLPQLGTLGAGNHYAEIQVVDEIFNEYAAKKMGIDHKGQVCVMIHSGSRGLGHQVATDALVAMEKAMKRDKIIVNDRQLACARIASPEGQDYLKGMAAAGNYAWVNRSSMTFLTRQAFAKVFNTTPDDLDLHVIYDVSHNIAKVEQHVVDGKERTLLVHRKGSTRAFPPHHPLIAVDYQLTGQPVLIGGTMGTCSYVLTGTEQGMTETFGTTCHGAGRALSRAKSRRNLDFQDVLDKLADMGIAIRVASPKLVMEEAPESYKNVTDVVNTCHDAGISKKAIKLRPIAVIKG
FLAG-RTCB (human tRNA ligase complex) with recombinant Archease, sequence (Q8IWT0 2-167 partner): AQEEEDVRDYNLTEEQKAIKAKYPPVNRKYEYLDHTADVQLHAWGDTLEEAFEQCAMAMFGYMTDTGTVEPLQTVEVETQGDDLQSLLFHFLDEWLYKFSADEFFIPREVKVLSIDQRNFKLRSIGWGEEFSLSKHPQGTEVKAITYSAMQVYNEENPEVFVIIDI
FLAG-RTCB (human tRNA ligase complex) with recombinant Archease, sequence (Q92499 whole entry partner): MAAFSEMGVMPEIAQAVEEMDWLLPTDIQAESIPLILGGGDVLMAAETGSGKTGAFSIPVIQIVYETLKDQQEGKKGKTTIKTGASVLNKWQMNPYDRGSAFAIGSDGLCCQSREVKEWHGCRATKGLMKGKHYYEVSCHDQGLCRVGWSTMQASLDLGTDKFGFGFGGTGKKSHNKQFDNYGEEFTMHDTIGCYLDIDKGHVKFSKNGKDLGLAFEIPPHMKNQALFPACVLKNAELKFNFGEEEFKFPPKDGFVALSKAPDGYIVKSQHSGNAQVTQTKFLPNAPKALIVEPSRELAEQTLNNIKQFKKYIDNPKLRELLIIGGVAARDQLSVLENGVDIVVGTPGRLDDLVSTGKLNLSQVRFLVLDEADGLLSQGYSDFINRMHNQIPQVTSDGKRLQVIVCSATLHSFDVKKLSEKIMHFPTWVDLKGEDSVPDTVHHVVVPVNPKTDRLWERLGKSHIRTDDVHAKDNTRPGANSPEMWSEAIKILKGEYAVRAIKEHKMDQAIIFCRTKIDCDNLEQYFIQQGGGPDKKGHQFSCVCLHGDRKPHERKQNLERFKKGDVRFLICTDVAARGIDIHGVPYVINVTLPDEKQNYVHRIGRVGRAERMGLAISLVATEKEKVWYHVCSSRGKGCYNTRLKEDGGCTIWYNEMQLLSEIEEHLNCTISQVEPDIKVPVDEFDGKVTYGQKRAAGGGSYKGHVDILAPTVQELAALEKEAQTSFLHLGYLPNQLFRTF
FLAG-RTCB (human tRNA ligase complex) with recombinant Archease, sequence (Q52LJ0 whole entry partner): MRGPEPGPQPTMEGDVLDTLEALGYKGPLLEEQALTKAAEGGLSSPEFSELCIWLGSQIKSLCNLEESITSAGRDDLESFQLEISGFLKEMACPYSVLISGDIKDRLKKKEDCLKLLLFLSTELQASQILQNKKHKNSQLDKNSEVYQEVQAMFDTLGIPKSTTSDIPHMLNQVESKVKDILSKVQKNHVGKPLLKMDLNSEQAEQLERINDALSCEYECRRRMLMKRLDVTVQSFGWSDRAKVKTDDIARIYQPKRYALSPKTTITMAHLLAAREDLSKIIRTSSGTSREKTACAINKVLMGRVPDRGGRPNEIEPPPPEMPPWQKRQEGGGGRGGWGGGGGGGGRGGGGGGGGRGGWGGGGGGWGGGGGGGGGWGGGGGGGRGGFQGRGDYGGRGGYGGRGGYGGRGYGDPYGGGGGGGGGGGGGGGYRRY
FLAG-RTCB (human tRNA ligase complex) with recombinant Archease, sequence (Q9BVC5 whole entry partner): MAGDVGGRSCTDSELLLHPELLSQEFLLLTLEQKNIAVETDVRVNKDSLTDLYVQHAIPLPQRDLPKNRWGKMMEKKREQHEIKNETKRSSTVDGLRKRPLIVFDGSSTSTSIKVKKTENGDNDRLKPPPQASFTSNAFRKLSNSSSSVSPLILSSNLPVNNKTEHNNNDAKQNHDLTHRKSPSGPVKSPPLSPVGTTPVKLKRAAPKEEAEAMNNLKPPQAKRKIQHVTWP
FLAG-RTCB (human tRNA ligase complex) with recombinant Archease, sequence (Q9Y224 whole entry partner): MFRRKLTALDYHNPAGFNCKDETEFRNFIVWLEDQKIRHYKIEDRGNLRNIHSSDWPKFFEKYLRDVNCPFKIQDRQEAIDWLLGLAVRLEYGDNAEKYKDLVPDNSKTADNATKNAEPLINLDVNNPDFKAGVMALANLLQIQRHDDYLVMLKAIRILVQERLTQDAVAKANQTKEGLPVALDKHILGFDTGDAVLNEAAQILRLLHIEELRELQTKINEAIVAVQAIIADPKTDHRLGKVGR

Row | Kd [2] | Compound | radiolabelled guanylation, SDS-PAGE autoradiography [1]
1 |  | Nc1nc2c(ncn2[C@@H]2O[C@H](COP(=O)(O)OP(=O)(O)OP(=O)(O)O)[C@@H](O)[C@H]2O)c(=O)[nH]1 [GTP] | Formation of a radiolabeled band corresponding to guanylated human FLAG-RTCB required the addition of WT Archease
2 | 1.8 nM | FLAG-RTCB complexes (human tRNA ligase complex affinity-purified by FLAG-RTCB) (from UniProt Q9Y3I0;Q92499;Q52LJ0;Q9Y224;Q9BVC5) | 
